Experimental data published in US9521847B2, “Synergistic weed control from applications of pyridine carboxylic acid herbicides and synthetic auxin herbicides and/or auxin transport inhibitors” (Dow AgroSciences LLC, priority 2014, dated 2016).
Where two headings read alike, the source gives them in different places.

Key:
[1] = tested on: Chinese kale (Brassica alboglabra, BRSAG); assay: Greenhouse postemergence trial, % visual injury; type: in vivo; conditions: 400 g ae/ha alone; 20-22 d
[2] = tested on: brown mustard (Brassica juncea, BRSJU); assay: Greenhouse postemergence trial, % visual injury; type: in vivo; conditions: 400 g ae/ha alone; 20-22 d
[3] = tested on: rutabaga (Brassica napus var. napobrassica, BRSNA); assay: Greenhouse postemergence trial, % visual injury; type: in vivo; conditions: 400 g ae/ha alone; 20-22 d
[4] = tested on: grain sorghum (Sorghum vulgare, SORVU); assay: Greenhouse postemergence trial, % visual injury; type: in vivo
[5] = tested on: black mustard (Brassica nigra, BRSNI); assay: Greenhouse postemergence trial, % visual injury; type: in vivo
[6] = tested on: turnip (Brassica rapa, BRSRR); assay: Greenhouse postemergence trial, % visual injury; type: in vivo
[7] = tested on: wild radish (Raphanus raphanistrum, RAPRA); assay: Greenhouse postemergence trial, % visual injury; type: in vivo
[8] = tested on: wild mustard (Sinapis arvensis, SINAR); assay: Greenhouse postemergence trial, % visual injury; type: in vivo
[9] = tested on: Indian hedge mustard (Sisymbrium orientale, SSYOR); assay: Greenhouse postemergence trial, % visual injury; type: in vivo
[10] = tested on: Canadian thistle (CIRAR, Cirsium arvense); assay: Greenhouse postemergence trial, % visual injury; conditions: for % visual injury, Obs: CIRAR;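 for all read-outs here: plants sprayed at second to third true leaf stage, injury scored visually 20-22 d later against solvent-blank sprayed controls, 0 meaning no injury and 100 complete kill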
[11] = tested on: spring rape (Brassica napus, BRSNN); assay: Greenhouse postemergence trial, % visual injury
[12] = tested on: wild pansy (Viola tricolor, VIOTR); assay: Greenhouse postemergence trial, % visual injury
[13] = tested on: ivyleaf morningglory (Ipomoea hederacea, IPOHE); assay: Greenhouse postemergence trial, % visual injury
[14] = tested on: winter wheat (TRZAW); assay: Greenhouse postemergence trial, crop phytotoxicity (% visual injury); conditions: for % visual injury, Obs: TRZAW; for % visual injury Obs: crop, 20-22 d
[15] = tested on: maize (ZEAMX); assay: as above; conditions: for % visual injury, Obs: ZEAMX
[16] = tested on: common rice (ORYSA); assay: as above; conditions: for % visual injury, Obs: ORYSA
[17] = tested on: pigweed (AMARE, Amaranthus retroflexus); assay: Greenhouse postemergence trial, % visual injury; type: in vivo
[18] = tested on: winter rape (BRSNW, Brassica napus); assay: Greenhouse postemergence trial, % visual injury; type: in vivo; conditions: 20-22 d
[19] = tested on: common lambsquarters (CHEAL, Chenopodium album L.); assay: Greenhouse postemergence trial, % visual injury; type: in vivo
[20] = tested on: kochia (KCHSC, Kochia scoparia); assay: Greenhouse postemergence trial, % visual injury; type: in vivo
Procedure: Following the protocol in Example 1, compound 1 and compound 2 were combined with 2,4 D EHE (EC) and applied to kochia (KCHSC, Kochia scoparia) and the phytotoxicity of the herbicidal compositions was measured.
Following the protocol in Example 1, compound 1 (EC) and Compound 2 (SC) were combined with diflufenzopyr and applied to kochia (Kochia scoparia, KCHSC) and the phytotoxicity of the herbicidal composition was measured.

[21] = tested on: common chickweed (Stellaria media, STEME); assay: Greenhouse postemergence trial, % visual injury; type: in vivo; conditions: for % visual injury, Obs: STEME
[22] = tested on: large crabgrass (Digitaria sanguinalis, DIGSA); assay: Greenhouse postemergence trial, % visual injury; type: in vivo; conditions: Digitaria sanguinalis, post-emergence, DIGSA, read-out: % visual injury, Obs
[23] = tested on: poinsettia (Euphorbia heterophylla, EPHHL); assay: Greenhouse postemergence trial, % visual injury
[24] = tested on: spring barley (HORVS); assay: Greenhouse postemergence trial, crop phytotoxicity (% visual injury); conditions: crop, 20-22 d
[25] = tested on: velvetleaf (Abutilon theophrasti, ABUTH); assay: Greenhouse postemergence trial, % visual injury; type: in vivo
[26] = tested on: nutsedge (Cyperus esculentus, CYPES); assay: Greenhouse postemergence trial, % visual injury; type: in vivo
[27] = tested on: sunflower (Helianthus annus, HELAN); assay: Greenhouse postemergence trial, % visual injury; type: in vivo; conditions: dichlorprop-P 400 g ae/ha
[28] = tested on: spring barley (HORVS); conditions: Hordeum vulgare (spring barley), in vivo
[29] = tested on: winter wheat (TRZAW); conditions: in vivo; for % visual injury Obs: Triticum aestivum (winter wheat)
[30] = tested on: common rice (ORYSA); conditions: in vivo
[31] = tested on: maize (ZEAMX); conditions: maize (Zea mays), in vivo
[32] = tested on: barnyardgrass (Echinochloa crus-galli, ECHCG); assay: Greenhouse postemergence trial, % visual injury; type: in vivo; conditions: ECHCG, 280 g ae/ha
[33] = Cirsium arvense, post-emergence, read-out: % visual injury Obs
[34] = Brassica napus, post-emergence, read-out: % visual injury, Obs
[35] = winter wheat (Triticum aestivum)
[36] = Cirsium arvense, post-emergence, read-out: % visual injury (Obs)
[37] = Brassica napus, post-emergence, read-out: % visual injury (Obs)

O=C(O)COc1ccc(Cl)cc1Cl [2,4-D choline, reference compound]
% visual injury Obs [1]: 85% | % visual injury Obs [2]: 90% | % visual injury Obs [3]: 93%

COC(=O)c1nc(-c2ccc(Cl)c(OC)c2F)cc(N)c1Cl [Arylex ™]
% visual injury (Obs) ([4]; Arylex 2.5 g ae/ha): 0% | % visual injury (Obs) ([5]; Arylex 2.5 g ae/ha): 0% | % visual injury (Obs) ([5]; Arylex 5 g ae/ha): 0% | % visual injury (Obs) ([6]; Arylex 2.5 g ae/ha): 10% | % visual injury (Obs) ([6]; Arylex 5 g ae/ha): 13% | % visual injury (Obs) ([7]; Arylex 2.5 g ae/ha): 10% | % visual injury (Obs) ([7]; Arylex 5 g ae/ha): 20% | % visual injury (Obs) ([8]; Arylex 2.5 g ae/ha): 65% | % visual injury (Obs) ([8]; Arylex 5 g ae/ha): 78% | % visual injury (Obs) ([9]; Arylex 2.5 g ae/ha): 57% | % visual injury (Obs) ([9]; Arylex 5 g ae/ha): 63% | % visual injury (Obs) ([10]; Arylex 2.5 g ae/ha): 50% | % visual injury (Obs) ([11]; Arylex 2.5 g ae/ha): 20% | % visual injury (Obs) ([12]; Arylex 2.5 g ae/ha): 15% | % visual injury (Obs) ([12]; Arylex 5 g ae/ha): 20% | % visual injury (Obs) ([13]; Arylex 2.5 g ae/ha): 10% | % visual injury (Obs) ([14]; Arylex 2.5 g ae/ha): 0% | % visual injury (Obs) ([15]; Arylex 2.5 g ae/ha): 0% | % visual injury (Obs) ([16]; Arylex 2.5 g ae/ha): 0%

O=C(O)c1nc(Cl)ccc1Cl [clopyralid]
% visual injury, Obs ([17]; AMARE, 100 g ae/ha): 28% | pest or weed control at 100 g/ha ([17]; Amaranthus retroflexus, post-emergence, 100 g ae/ha alone, 20-22 d, read-out: % visual injury Obs): 3% | % visual injury Obs ([18]; 100 g ae/ha alone): 0% | pest or weed control at 100 g/ha ([19]; Chenopodium album, post-emergence, 100 g ae/ha alone, 20-22 d, read-out: % visual injury Obs): 0% | % visual injury (Obs) ([19]; clopyralid 120 g ae/ha): 10% | % visual injury (Obs) ([20]; clopyralid 120 g ae/ha): 10% | % visual injury (Obs) ([21]; clopyralid 120 g ae/ha): 0% | pest or weed control at 100 g/ha ([22]; 100 g ae/ha): 0% | pest or weed control at 100 g/ha [10, 33]: 85% | plant injury at 100 g/ha [11, 34]: 43% | pest or weed control at 100 g/ha ([23]; Euphorbia heterophylla, post-emergence, read-out: % visual injury, Obs, EPHHL, 100 g ae/ha): 5% | pest or weed control at 100 g/ha ([13]; Ipomoea, post-emergence, read-out: % visual injury, Obs, IPOHE, 100 g ae/ha): 35% | % visual injury (Obs) ([13]; clopyralid 120 g ae/ha): 30% | % visual injury Obs ([24]; 100 g ae/ha alone): 5% | % visual injury, Obs ([14]; 100 g ae/ha): 0% | % visual injury (Obs) ([14]; clopyralid 120 g ae/ha): 0% | % visual injury Obs ([14]; 100 g ae/ha alone): 3% | % visual injury, Obs ([15]; 100 g ae/ha): 0% | % visual injury (Obs) ([15]; clopyralid 120 g ae/ha): 0% | % visual injury, Obs ([16]; 100 g ae/ha): 0% | % visual injury (Obs) ([16]; clopyralid 120 g ae/ha): 0%

CC(Oc1ccc(Cl)cc1Cl)C(=O)O (stereo not shown) [Dichlorprop-P, dichlorprop-P, reference compound]
pest or weed control at 280 g/ha ([17]; Amaranthus retroflexus, post-emergence, 280 g ae/ha alone, 20-22 d, read-out: % visual injury Obs): 40% | % visual injury Obs ([18]; 280 g ae/ha alone): 83% | % visual injury (Obs) ([25]; dichlorprop-P 400 g ae/ha): 60% | % visual injury (Obs) ([26]; dichlorprop-P 400 g ae/ha): 0% | % visual injury (Obs) [27]: 85% | % visual injury (Obs) ([21]; dichlorprop-P 400 g ae/ha): 20% | % visual injury Obs [28]: 0% | % visual injury Obs [29]: 0% | % visual injury (Obs) [29, 35]: 0% | % visual injury (Obs) [30]: 0% | pest or weed control at 400 g/ha [10, 36]: 70% | pest or weed control at 280 g/ha [10, 33]: 75% | plant injury at 400 g/ha [11, 37]: 80% | % visual injury (Obs) ([23]; dichlorprop-P 400 g ae/ha): 60%

COc1c(Cl)ccc(Cl)c1C(=O)O [Dicamba-DMA, dicamba-dimethylammonium, reference compound]
pest or weed control at 140 g/ha ([17]; Amaranthus retroflexus, post-emergence, 140 g ae/ha alone, 20-22 d, read-out: % visual injury Obs): 67% | % visual injury Obs ([18]; 140 g ae/ha alone): 40% | % visual injury, Obs ([19]; CHEAL, 140 g ae/ha): 85% | pest or weed control at 140 g/ha ([22]; 140 g ae/ha): 0% | % visual injury Obs [28]: 0% | % visual injury Obs [29]: 0% | % visual injury (Obs) [29, 35]: 0% | % visual injury, Obs [29, 35]: 0% | % visual injury (Obs) [31]: 0% | % visual injury, Obs [31]: 0% | % visual injury (Obs) [30]: 0% | % visual injury, Obs [30]: 5% | pest or weed control at 150 g/ha [10, 36]: 70% | plant injury at 150 g/ha [11, 37]: 40% | plant injury at 140 g/ha [11, 34]: 50% | pest or weed control at 140 g/ha ([23]; Euphorbia heterophylla, post-emergence, read-out: % visual injury, Obs, EPHHL, 140 g ae/ha): 20% | % visual injury (Obs) ([23]; dicamba-DMA 150 g ae/ha): 50% | % visual injury (Obs) ([12]; dicamba-DMA 150 g ae/ha): 20% | % visual injury (Obs) ([13]; dicamba-DMA 150 g ae/ha): 70%

CCCCOCCOC(=O)COc1nc(Cl)c(Cl)cc1Cl [triclopyr-butotyl, reference compound]
pest or weed control at 280 g/ha ([20]; Bassia scoparia, post-emergence, KCHSC, 280 g ae/ha, read-out: % visual injury, Obs): 50% | pest or weed control at 280 g/ha ([25]; Abutilon theophrasti, post-emergence, ABUTH, 280 g ae/ha, read-out: % visual injury, Obs): 20% | % visual injury, Obs ([26]; CYPES, 280 g ae/ha): 10% | % visual injury, Obs ([21]; 280 g ae/ha): 20% | pest or weed control at 280 g/ha ([22]; 280 g ae/ha): 0% | % visual injury, Obs [32]: 0% | % visual injury, Obs ([10]; 280 g ae/ha): 85% | plant injury at 280 g/ha [11, 34]: 80% | % visual injury, Obs ([12]; VIOTR, 280 g ae/ha): 65% | % visual injury, Obs ([14]; 280 g ae/ha): 15% | % visual injury, Obs ([15]; 280 g ae/ha): 10% | % visual injury, Obs ([16]; 280 g ae/ha): 0%

Cc1cc(Cl)ccc1OC(C)C(=O)O (stereo not shown) [Mecoprop-P, mecoprop-P]
pest or weed control at 400 g/ha ([17]; Amaranthus retroflexus, post-emergence, 400 g ae/ha alone, 20-22 d, read-out: % visual injury Obs): 58% | % visual injury Obs ([18]; 400 g ae/ha alone): 88% | pest or weed control at 400 g/ha ([20]; Bassia scoparia, post-emergence, KCHSC, 400 g ae/ha, read-out: % visual injury, Obs): 10% | pest or weed control at 400 g/ha ([25]; Abutilon theophrasti, post-emergence, ABUTH, 400 g ae/ha, read-out: % visual injury, Obs): 30% | % visual injury, Obs ([4]; SORVU, 400 g ae/ha): 0% | % visual injury, Obs ([21]; 400 g ae/ha): 0% | % visual injury, Obs ([10]; 400 g ae/ha): 10% | plant injury at 400 g/ha [11, 34]: 30% | pest or weed control at 400 g/ha ([23]; Euphorbia heterophylla, post-emergence, read-out: % visual injury, Obs, EPHHL, 400 g ae/ha): 30% | pest or weed control at 400 g/ha ([13]; Ipomoea, post-emergence, read-out: % visual injury, Obs, IPOHE, 400 g ae/ha): 30% | % visual injury Obs ([24]; 400 g ae/ha alone): 0% | % visual injury, Obs ([14]; 400 g ae/ha): 0% | % visual injury Obs ([14]; 400 g ae/ha alone): 0% | % visual injury, Obs ([15]; 400 g ae/ha): 0% | % visual injury, Obs ([16]; 400 g ae/ha): 0%
